Measured values as given in patent US20080096897A1, “5-(1,1'Biphenyl)-4-Yl-5-(4-(4-Aminoacylphenyl)-Piperazin)-1-Yl-Pyrimidine-2,4,6,-Trione Derivatives, As Inhibitors Of Zinc Metallondopeptidases, Their Preparation And Use” (priority 2004, published 2008).
Like-named read-outs stand apart in the source and are kept apart here.

How the values were obtained:
[1] = target: recombinant human MMP14 (Homo sapiens, UniProt P50281); experiment: MMP inhibition on isolated enzymes, fluorigenic peptide substrate; type: biochemical
Description: (§1) The matrix metalloproteinase (MMP) inhibitory activity has been evaluated in a classical biochemical assay using fluorigenic peptide substrates. Briefly, a peptide bearing 1) a fluorescent group and 2) a quenching group bound to another amino acid of the peptide is submitted to the proteolytic action of an MMP. The cleavage of peptide bounds due to the MMP results in a dequenching of the fluorescent group. There is a direct relationship between the observed fluorescence and the activity of the enzyme. The MMP inhibiting activity of a given substance can then be assessed using this assay.
(§2) The compounds of the present invention have been assayed using this assay design with recombinant human MMP2, MMP14 and MMP16 and the peptide ZGly-Gly-ArgAMC, which is a well-known, commercially available substrate of MMPs.
(§3) The following IC50 values (inhibitor concentration required to inhibit 50% of the enzyme) have been obtained with the compounds prepared according to examples 2 to 5 and compared to a product of the state of the art, better known as Ro 28-2653. Ro 28-2653 is included in claim 1 of WO 01/25217.

[2] = target: T1, recombinant human MMP2 (Homo sapiens, UniProt P08253); experiment: as above; type: biochemical
T1 sequence (P08253 110-660): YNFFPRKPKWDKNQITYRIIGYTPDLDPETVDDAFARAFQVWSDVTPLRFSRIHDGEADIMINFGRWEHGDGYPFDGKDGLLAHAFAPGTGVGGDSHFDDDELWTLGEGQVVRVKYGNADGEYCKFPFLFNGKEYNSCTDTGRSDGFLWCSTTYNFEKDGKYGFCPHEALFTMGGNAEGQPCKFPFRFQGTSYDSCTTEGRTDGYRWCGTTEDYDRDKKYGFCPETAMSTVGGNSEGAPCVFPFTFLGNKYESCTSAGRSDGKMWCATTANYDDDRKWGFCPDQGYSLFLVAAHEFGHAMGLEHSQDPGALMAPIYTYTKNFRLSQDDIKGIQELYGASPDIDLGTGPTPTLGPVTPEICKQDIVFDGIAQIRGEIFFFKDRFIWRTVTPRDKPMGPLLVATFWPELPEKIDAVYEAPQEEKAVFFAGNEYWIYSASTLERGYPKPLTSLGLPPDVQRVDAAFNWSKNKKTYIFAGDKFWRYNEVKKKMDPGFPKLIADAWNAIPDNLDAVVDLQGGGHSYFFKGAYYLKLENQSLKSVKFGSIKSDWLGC
Description: as §1, §2, §3

[3] = target: recombinant human MMP16 (Homo sapiens, UniProt P51512); experiment: as above; type: biochemical
Description: as §1, §2, §3

[4] = system: capillary vessel outgrowth from aorta rings; experiment: aorta ring angiogenesis assay; type: cell-based; settings: 10 μM in culture medium, rat aorta rings in collagen, 6-9 days
Description: Compound 5-(1,1′-biphenyl)-4-yl-5-{4-[4-(2,5-dioxopyrrolidin-1-yl)phenyl]piperazin-1-yl}pyrimidine-2,4,6(1H,3H,5H)-trione prepared according to example 4 has also been assayed in an aorta ring angiogenesis assay.
Briefly, in the aorta ring assay, fresh slices (ring) of aorta dissected from rat were embedded in collagen1 and then cultivated in Petri dishes after addition of culture medium (n=6). […] The effect of the compound of example 4 (10 μM) on angiogenesis was evaluated by its potency to stimulate or to inhibit the outgrowth of the capillary vessels when it was added to the culture medium (n=6).

recombinant human MMP16, sequence (P51512 120-607): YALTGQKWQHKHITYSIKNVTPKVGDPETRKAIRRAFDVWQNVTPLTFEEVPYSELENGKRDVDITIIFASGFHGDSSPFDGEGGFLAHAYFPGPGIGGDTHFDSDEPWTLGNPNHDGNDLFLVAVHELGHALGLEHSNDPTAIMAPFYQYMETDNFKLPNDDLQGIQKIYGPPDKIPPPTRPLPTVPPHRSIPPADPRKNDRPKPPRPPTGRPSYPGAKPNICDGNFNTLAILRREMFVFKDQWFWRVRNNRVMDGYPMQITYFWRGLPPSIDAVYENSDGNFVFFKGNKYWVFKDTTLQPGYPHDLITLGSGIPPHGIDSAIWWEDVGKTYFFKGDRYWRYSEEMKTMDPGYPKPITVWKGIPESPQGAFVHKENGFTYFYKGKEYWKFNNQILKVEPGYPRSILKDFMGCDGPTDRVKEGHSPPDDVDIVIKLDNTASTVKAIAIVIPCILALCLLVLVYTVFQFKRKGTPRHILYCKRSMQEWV

Compound: O=C1NC(=O)C(c2ccc(-c3ccccc3)cc2)(N2CCN(c3ccc([N+](=O)[O-])cc3)CC2)C(=O)N1 [Ro 28-2653, reference compound]
- IC50 [1]: 96 nM
- IC50 [2]: 246 nM
- IC50 [3]: 91 nM

Compound: O=C(O)CCC(=O)Nc1ccc(N2CCN(C3(c4ccc(-c5ccccc5)cc4)C(=O)NC(=O)NC3=O)CC2)cc1 [example 2, N-{4-[4-(5-(1,1′-Biphenyl)-4-yl-2,4,6-trioxoperhydropyrimidin-5-yl)piperazin-1-yl]-phenyl}succinamic acid]
- IC50 [1]: 29 nM
- IC50 [2]: 110 nM
- IC50 [3]: 39 nM

Compound: O=C(O)CCCC(=O)Nc1ccc(N2CCN(C3(c4ccc(-c5ccccc5)cc4)C(=O)NC(=O)NC3=O)CC2)cc1 [example 3, 4-{4-[4-(5-(1,1′-Biphenyl)-4-yl-2,4,6-trioxoperhydropyrimidin-5-yl)piperazin-1-yl]-phenylcarbamoyl}butyric acid]
- IC50 [1]: 26 nM
- IC50 [2]: 98 nM
- IC50 [3]: 49 nM

Compound: O=C1NC(=O)C(c2ccc(-c3ccccc3)cc2)(N2CCN(c3ccc(N4C(=O)CCC4=O)cc3)CC2)C(=O)N1 [example 4, 5-(1,1′-Biphenyl)-4-yl-5-{4-[4-(2,5-dioxopyrrolidin-1-yl)phenyl]piperazin-1-yl}pyrimidine-2,4,6(1H,3H,5H)-trione]
- effect on capillary vessel outgrowth (angiogenesis) [4]: severely inhibit the capillary vessel outgrowth
- IC50 [1]: 13 nM
- IC50 [2]: 75 nM
- IC50 [3]: 21 nM

Compound: O=C1CCC(=O)N(c2ccc(N3CCN(C4(c5ccc(-c6ccccc6)cc5)C(=O)NC(=O)NC4=O)CC3)cc2)C1 [example 5, 5-(1,1′-Biphenyl)-4-yl-5-{4-[4-(2,5-dioxopiperidin-1-yl)phenyl]piperazin-1-yl}pyrimidine-2,4,6(1H,3H,5H)-trione]
- IC50 ([1]; recombinant human MMP14, substrate ZGly-Gly-ArgAMC, read-out: IC50 (nM) values on isolated enzymes MMP-14): 23 nM
- IC50 ([2]; recombinant human MMP2, substrate ZGly-Gly-ArgAMC, read-out: IC50 (nM) values on isolated enzymes MMP-2): 93 nM
- IC50 ([3]; recombinant human MMP16, substrate ZGly-Gly-ArgAMC, read-out: IC50 (nM) values on isolated enzymes MMP-16): 20 nM
